According to PMC10377753, “Pharmacokinetic and pharmacodynamic properties of polymyxin B in Escherichia coli and Klebsiella pneumoniae murine infection models” (Journal of Antimicrobial Chemotherapy, 2023):
Counter-ions that a name gives are not always drawn. Bridge positions count the residues as written; N and C are the ends. Square brackets hold non-standard residues; d marks the D form. Peptide text beside a SMILES is read from it. * marks the point of attachment. X1 = CC[C@H](C)CCCCC(=O)*; Dab = NCC[C@H](N)C(=O)O

Assays:
K. pneumoniae isolates = assay: Dose-response study, thigh infection model, summary over K. pneumoniae isolates; type: in vivo, Klebsiella pneumoniae; details: mouse thigh infection
Experimental: (§1) Experiments were carried out in the Erasmus Laboratory Animal Science Centre in Rotterdam, The Netherlands in accordance with the EU Animal Directive 2010/63/EU 2010 directive[14] (licence number AVD101002016702) as described before,[15] with approval of the institutional Animal Welfare Body. Outbred female CD-1 mice obtained from Charles River Germany, weighing 20–25 g, 7–8 weeks old, were used in the experiments. The mice were housed under standard conditions with drink and feed supplied ad libitum.
Mice were rendered neutropenic by intraperitoneal injection of cyclophosphamide of 150 and 100 mg/kg, 4 days and 1 day before infection, respectively. On the day of infection, an overnight culture of the bacteria was diluted in fresh CAMHB and incubated at 37°C for 1 or 2 h depending on the growth rate of the strain. After incubation the inoculum was diluted in CAMHB or saline for the thigh and lung infection model, respectively, in order to obtain approximately 5.0 × 10^7 cfu/mL. Mice were then infected intramuscularly in each thigh (thigh infection model) or intranasally under isoflurane anaesthesia (lung infection model), with 0.05 mL of inoculum containing approximately 2.5 × 10^6 bacteria. Analgesia was given in the form of buprenorphine directly after infection, every 12 h.
For dose–response studies, a 6 hourly dosing regimen of 1–32 mg/kg was studied in the thigh infection model. Mice were infected with E. coli […], 15, 51 or 71 or K. pneumoniae ATCC 43816, 17, 58 or 74.
Animals were humanely euthanized 24 h (t = 24 h) after the first dose, unless the welfare of the animals necessitated earlier termination, following animal welfare regulations. Excised thighs were transferred to a pre-cooled 14 mL polypropylene tube containing 2 mL of PBS and were homogenized using a T25 ULTRA-TURRAX (IKA-Werke GmbH & Co, Staufen, Germany). A 10-fold dilution series was prepared and 3 × 10 μL was plated per dilution. The following day, colonies were counted and the number of cfu per thigh was calculated.
The drug effect was determined by the difference between the log10 cfu values at t = 0 h (mean value of two mice) and t = 24 h (value of individual mice) expressed as Δlog10 cfu. The fAUC/MIC, fCmax/MIC and %fT>MIC were determined based on the simulated time–concentration profiles over 24 h as derived in MicLab 2.71 (MEDIMATICS, Maastricht, The Netherlands) using 200 points per dosing interval.
(§2) A sigmoid maximum effect (Emax) model was fitted to the PK/PD index versus Δlog10 cfu data by non-linear regression, and static or a 1 log or 2 log kill effect were determined using GraphPad Prism 8.0 (GraphPad, Inc., San Diego, CA, USA). […]

[1] = system: four E. coli and four K. pneumoniae strains; assay: Dose-response study, thigh infection model, summary over all eight isolates; type: in vivo, Escherichia coli, Klebsiella pneumoniae; details: q6h dosing, mouse thigh infection
Experimental: as §1
Mice were rendered neutropenic by intraperitoneal injection of cyclophosphamide of 150 and 100 mg/kg, 4 days and 1 day before infection, respectively. […]
Animals were humanely euthanized 24 h (t = 24 h) after the first dose, unless the welfare of the animals necessitated earlier termination, following animal welfare regulations. […] The following day, colonies were counted and the number of cfu per thigh was calculated.
The drug effect was determined by the difference between the log10 cfu values at t = 0 h (mean value of two mice) and t = 24 h (value of individual mice) expressed as Δlog10 cfu. […]
as §2

plasma proteins = details: clinical studies; cited from earlier work
Experimental: A previously published population PK model[19] and Monte Carlo simulations was used to estimate the fAUCs of 5000 patients treated with 200 mg q24h (MicLab 2.71) taking into account protein-binding rates ranging from 36% to 98% as previously reported.[20–23] The PTA was calculated for isolates with MICs ranging from 0.25 to 4 mg/L. || In clinical studies, the protein binding of polymyxin B is much higher than reported in mice, with protein binding in plasma up to 99% for polymyxin B.[22],[26],[27] This applies to colistin as well.[5],[28] Therefore, the PK/PD targets based on the unbound fraction are necessary for translating PK/PD data of polymyxin B to the clinic.

gram-negative pathogens = details: previous studies; cited from earlier work
Experimental: To determine whether these targets are achieved in humans, the PTAs for the 200 mg q24h dose were calculated. It is clear that the degree of protein binding is essential herein and more clarity on the protein binding in human plasma is needed before an optimal dosing regimen can be recommended, since for a highly protein-bound drug a small error on the fu would yield important PTA differences.

Compound: CC[C@H](C)CCCCC(=O)N[C@@H](CCN)C(=O)N[C@H](C(=O)N[C@@H](CCN)C(=O)N[C@H]1CCNC(=O)[C@H]([C@@H](C)O)NC(=O)[C@H](CCN)NC(=O)[C@H](CCN)NC(=O)[C@H](CC(C)C)NC(=O)[C@@H](Cc2ccccc2)NC(=O)[C@H](CCN)NC1=O)[C@@H](C)O [polymyxin B, Polymyxin B sulphate salt] (X1-[Dab]T[Dab][Dab][Dab][dF]L[Dab][Dab]T; lactam 4-C)
- Isolates in which 1 log kill was found (K. pneumoniae isolates; K. pneumoniae isolates): 1/4
- Target value of fAUC/MIC, static effect, average (K. pneumoniae isolates; average of four K. pneumoniae isolates, q6h): 22.4
- Target value of fAUC/MIC, static effect, median (K. pneumoniae isolates; median of four K. pneumoniae isolates, q6h): 11.6
- Target value of fAUC/MIC, static effect, range (K. pneumoniae isolates; range over four K. pneumoniae isolates, q6h): 5.9–60.5
- Isolates in which a 1 log kill effect was observed [1]: 3/8
- Isolates in which a 2 log kill effect was observed [1]: 1/8
- Protein binding in plasma (plasma proteins): up to 99%
- MIC90 (gram-negative pathogens): 0.5 to 1 µg/mL
